Patent publication US4569910A, “Methods and reagents for pyranosone production” (Cetus Corporation, priority 1984, dated 1986)

Key:
[1] = Nonenzymatic breakdown of purified glucosone (UV scans 200-350 nm; H2O2 effect); type: physicochemical; conditions: for Change of 310 nm peak (nonenzymatic breakdown): 0.5% glucosone solution, scans at one minute intervals
Method: The conversion of a pyranose to the corresponding pyranosone by P2O in the presence of oxygen is accompanied by the stoichiometric production of H2 O2. The H2 O2 produced in the reaction may promote oxidative degradation of the product. Studies performed in support of the present application indicate that nonenzymatic breakdown of glucosone to acidic products may be accelerated at H2 O2 concentrations above about 0.2 mM. More importantly, elevated H2 O2 concentrations produce relatively rapid inactivation of the P2O enzyme. The susceptibility of P2O to inactivation by elevated concentrations of H2 O2 in a continuous-flow reactor is described below in Example XIII. Briefly, four continuous-flow reactors containing different P2O/catalase activity ratios were run in the presence of pure glucose. The half-life of the P2O enzyme in each reactor was determined from the observed change in the amount of glucosone eluting from the reactor over a several-day reaction period. The measured half-lives of P2O expressed in arbitrary half-life units, are given in Example XIII, Table 1. As will be seen from the table, the presence of catalase, at a P2O/catalase activity ratio of less than about 10^-3 and preferably less than about 2×10^-4 (i.e., at an H2 O2 concentration of less than about 0.2mM) extends the measured P2O half-life 30-60 fold with respect to that of P2O reacted with glucose in the absence of catalase.
Secondly, studies indicate that pure glucosone undergoes relatively rapid, nonenzymatic breakdown above a pH of about 7.0. […] Immediately thereafter, the solution was scanned spectrophotometrically in the UV range between 200 and 350 nm, at one minute intervals.

C. versicolor P2O = target: T1, C. versicolor P2O (Trametes versicolor, UniProt P79076); assay: Relative activities of purified C. versicolor P2O on pyranose substrates; type: biochemical; conditions: 1% (w/v) substrate concentration; D-glucose = 100
T1 construct: endogenous in cells; host or cells: Coriolus versicolor, own culture (NRRL 15152 / CMCC 0748, selected high producer; native enzyme, purified)
Method: The enzyme was applied to a 2.6×40 cm DEAE column, washed, and eluted using a 0-300 mM NaCl gradient. The P2O elutes at about 220 mM. Portions of each fraction were assayed for P2O activity, by monitoring peroxide generation conventionally. Protein concentration was also determined by a conventional method. The fractions containing P2O activity were pooled and concentrated by ultrafiltration with an Amicon PM10 filter obtained from Amicon Corp. Peak fractions were dialyzed into 30 mM sodium acetate (pH 5.5), adjusted to 1.5M NaCl and loaded onto a phenylsepharose column. The P2O was eluted with a 0-1.5M NaCl gradient in 50 mM sodium acetate, pH 5.5. The enzyme eluted at about 1.1M NaCl. Fractions containing the peak activity were pooled and concentrated to 0.5 ml by Amicon PM30 ultrafiltration and sized according to native molecular weight using a 1.5×95 cm Biogel P300 column. Elution was at 0.1 ml/minute with 100 mM sodium phosphate, pH 7.0. Using known molecular weight markers in the column, the enzyme's apparent native molecular weight was calculated to be about 130,000 daltons. A single band having a molecular weight of about 65,000 was observed when the enzyme was analyzed by SDS-PAGE. The enzyme thus appears to be a homodimer. The enzyme was judged to be about 95% pure, based on the staining intensity of protein bands in SDS-PAGE.
The relative activities of the enzyme on the substrates D-glucose, L-sorbose, D-xylose and delta-D-gluconolactone are 100: 74: 41: 6, respectively, at 1% (w/v) substrate concentration. The enzyme has a pH optimum of about 5.0.

L. betulinus P2O = assay: Relative activities of purified L. betulinus P2O on pyranose substrates; type: biochemical; conditions: 20 mM substrate concentration; D-glucose = 100
Method: The resulting clear yellow supernatant was further purified using DEAE chromatography in 30 mM TRIS-HCl, pH 8.5, and eluted from the 5×16 cm column using a 0-300 mM NaCl gradient. The protein eluted at about 75 mM NaCl. Fractions containing the peak of P2O activity were pooled and concentrated to 0.5 ml by Amicon PM30 ultrafiltration, and then fractionated, according to native molecular weight, using a 1.5×95 cm Biogel P300 column. The column was run at a flow rate of 0.1 ml per minute, using 100 mM sodium phosphate, pH 7.0. The protein eluted in a fraction corresponding to an apparent native molecular weight of about 300,000 daltons. […] Based on the molecular weight data, the protein appears to be a homotetramer.
The enzyme contains a covalently attached flavin on each subunit, and has absorption maxima at 275, 360, and 450 nm. The relative activities of the purified enzyme on the pyranose substrates D-glucose, L-sorbose, D-xylose and delta-D-gluconolactone are 100: 43: 43: 26, respectively, at 20 mM substrate concentration. The enzyme has a broad pH optimum between about 5 and 6.

P. obtusus P2O = assay: Relative activities of purified P. obtusus P2O on pyranose substrates; type: biochemical; conditions: about 1% (w/v) substrate concentration; D-glucose = 100
Method: The P2O enzyme preparation from Example II was purified further using DEAE chromatography in 30 mM TRIS-HCl, pH 8.5, containing 2 mM EDTA and 10 ug/ml PMSF. The sample was eluted from a 5×16 cm column using a gradient of 0-300 mM NaCl. P2O activity was monitored using the orthodianisidine colorometric assay for the peroxide co-product, essentially as described by Ruelius et al., Biochim et Biophys. Acta 167, 493-500 (1968). P2O activity eluted at about 50 mM NaCl. Fractions containing the peak activity were pooled and concentrated to 0.5 ml by ultrafiltration using Amicon filters obtained from Amicon Corp. (Danvers, MA). Biogel P300 was obtained from Biorad Laboratories (Richmond, CA). The sample was further purified by molecular sieve chromatography using a 1.5×95 cm Biogel P300 column in 100 mM sodium phosphate, pH 7 buffer. The P2O activity eluted at a sharp peak corresponding to an apparent native molecular weight of about 290,000 daltons.
The enzyme appears to contain one covalently bound flavin molecule per subunit (detectable as UV-fluorescence in the 68,000 dalton SDS-PAGE band), and has absorption maxima at 276, 357 and 456 nm. The enzyme has a sedimentation coefficient of about 11.4, as determined by sucrose gradient ultracentrifugation. The relative activities of the enzyme, on D-glucose, L-sorbose, D-xylose, and D-gluconolactone are 100: 80: 48: 12, respectively, at about 1% (w/v) substrate concentration. As noted above with respect to FIG. 2, the enzyme has a broad pH optimum of between about 4.5 and 5.5.

Structure (SMILES) | H2O2 concentration above which nonenzymatic breakdown to acidic products may be accelerated [1] | Change of 310 nm peak (nonenzymatic breakdown) ([1]; pH 6.0) | Change of 310 nm peak (nonenzymatic breakdown) ([1]; pH 7.0, buffered) | Relative activity of the enzyme on substrate (C. versicolor P2O) | Relative activity of the enzyme on substrate (L. betulinus P2O) | Relative activity of the enzyme on substrate (P. obtusus P2O)
O=CC(=O)[C@@H](O)[C@H](O)[C@H](O)CO [glucosone, D-arabino-2-hexosulose] | above 0.2 mM | no initial peak at 310 nm was observed nor did one form | increasing several-fold over a five minute period | – | – | –
O=C(CO)[C@@H](O)[C@H](O)[C@@H](O)CO [L-sorbose] | – | – | – | 74 | 43 | 80
O=C[C@H](O)[C@@H](O)[C@H](O)CO [D-xylose] | – | – | – | 41 | 43 | 48
O=C[C@H](O)[C@@H](O)[C@H](O)[C@H](O)CO [D-glucose] | – | – | – | 100 | 100 | 100
O=C1O[C@H](CO)[C@@H](O)[C@H](O)[C@H]1O [delta-D-gluconolactone, D-gluconic acid delta-lactone] | – | – | – | 6 | 26 | 12
